Target: CDK2/Cyclin E1 (Homo sapiens (Human), UniProt P24941)
Test: CDK2/Cyclin E1 HTRF Enzyme Activity Assay
Type: biochemical
Details: 1 mM ATP
Description: Example A. CDK2/Cyclin E1 HTRF Enzyme Activity Assay
CDK2/Cyclin E1 enzyme activity assays utilize full-length human CDK2 co-expressed as N-terminal GST-tagged protein with FLAG-Cyclin E1 in a baculovirus expression system (Carna Product Number 04-165). Assays are conducted in white 384-well polystyrene plates in a final reaction volume of 8 μL. CDK2/Cyclin E1 (0.25 nM) is incubated with compounds (40 nL serially diluted in DMSO) in the presence of ATP (50 μM or 1 mM) and 50 nM ULight™-labeled eIF4E-binding protein 1 (THR37/46) peptide (PerkinElmer) in assay buffer (containing 50 mM HEPES pH 7.5, 1 mM EGTA, 10 mM MgCl2, 2 mM DTT, 0.05 mg/ml BSA, and 0.01% Tween 20) for 60 minutes at room temperature. The reactions are stopped by the addition of EDTA and Europium-labeled anti-phospho-4E-BP 1 antibody (PerkinElmer), for a final concentration of 15 mM and 1.5 nM, respectively. HTRF signals are read after 1 hour at room temperature on a PHERAstar FS plate reader (BMG Labtech). Data is analyzed with IDBS XLFit and GraphPad Prism 5.0 software using a three or four parameter dose response curve to determine IC50 for each compound.

Row | IC50 | Structure (SMILES)
1 | 100 to 500 nM | Cn1nccc1CN1C(=O)C(C)(C)Cc2cnc(NC3CCN(S(C)(=O)=O)CC3)nc21 [Example 5, 6,6-dimethyl-8-((1-methyl-1H-pyrazol-5-yl)methyl)-2-((1-(methylsulfonyl)piperidin-4-yl)amino)-5,8-dihydropyrido[2,3-d]pyrimidin-7(6H)-one]
2 | 100 to 500 nM | CC1(C)Cc2cnc(NC3CCN(S(C)(=O)=O)CC3)nc2N(c2ccccc2)C1=O [Example 3, 6,6-dimethyl-2-((1-(methylsulfonyl)piperidin-4-yl)amino)-8-phenyl-5,8-dihydropyrido[2,3-d]pyrimidin-7(6H)-one]

Further lines, the compound ahead of its results:

Row | Structure (SMILES) | IC50
3 | CC1(C)Cc2cnc(Nc3ccc(S(N)(=O)=O)cc3)nc2N(C2CCCC2)C1=O [Example 1, 4-((8-cyclopentyl-6,6-dimethyl-7-oxo-5,6,7,8-tetrahydropyrido[2,3-d]pyrimidin-2-yl)amino)benzenesulfonamide] | ≤ 10 nM
4 | CC1(C)Cc2cnc(NC3CCN(S(C)(=O)=O)CC3)nc2N(C2CCCC2)C1=O [Example 2, 8-cyclopentyl-6,6-dimethyl-2-((1-(methylsulfonyl)piperidin-4-yl)amino)-5,8-dihydropyrido[2,3-d]pyrimidin-7(6H)-one] | ≤ 10 nM
5 | CC1(C)Cc2cnc(NC3CCN(S(C)(=O)=O)CC3)nc2N(C2CCOC2)C1=O (racemic) [Example 6, 6,6-dimethyl-2-((1-(methylsulfonyl)piperidin-4-yl)amino)-8-(tetrahydrofuran-3-yl)-5,8-dihydropyrido[2,3-d]pyrimidin-7(6H)-one] | 100 to 500 nM
6 | CCC(C(F)F)N1C(=O)C(C)(C)Cc2cnc(NC3CCN(S(C)(=O)=O)CC3)nc21 (racemic) [Example 4, 8-(1,1-difluorobutan-2-yl)-6,6-dimethyl-2-((1-(methylsulfonyl)piperidin-4-yl)amino)-5,8-dihydropyrido[2,3-d]pyrimidin-7(6H)-one] | 10 to 100 nM
